Assay results: ChEMBL document CHEMBL1201862, “PubChem BioAssay data set” (2004)
Blank lines part the entries; values can stand above or below the compound they belong to. Active and inactive are the calls of the source.

What was measured:
T-cell = experiment: loss of vesicle association with mouse CD8+ T cells – mouse 2C CD8+ T cells, flow cytometry, dose response (AID 485284); assay type: functional
Coagulation factor XII = biological target: T1, Coagulation factor XII (Homo sapiens, UniProt P00748); experiment: Factor XIIa Dose Response Confirmation from Single Well HTS. [Related pubchem assays (depositor defined):AID701]; assay type: functional
T1 sequence (P00748 whole entry): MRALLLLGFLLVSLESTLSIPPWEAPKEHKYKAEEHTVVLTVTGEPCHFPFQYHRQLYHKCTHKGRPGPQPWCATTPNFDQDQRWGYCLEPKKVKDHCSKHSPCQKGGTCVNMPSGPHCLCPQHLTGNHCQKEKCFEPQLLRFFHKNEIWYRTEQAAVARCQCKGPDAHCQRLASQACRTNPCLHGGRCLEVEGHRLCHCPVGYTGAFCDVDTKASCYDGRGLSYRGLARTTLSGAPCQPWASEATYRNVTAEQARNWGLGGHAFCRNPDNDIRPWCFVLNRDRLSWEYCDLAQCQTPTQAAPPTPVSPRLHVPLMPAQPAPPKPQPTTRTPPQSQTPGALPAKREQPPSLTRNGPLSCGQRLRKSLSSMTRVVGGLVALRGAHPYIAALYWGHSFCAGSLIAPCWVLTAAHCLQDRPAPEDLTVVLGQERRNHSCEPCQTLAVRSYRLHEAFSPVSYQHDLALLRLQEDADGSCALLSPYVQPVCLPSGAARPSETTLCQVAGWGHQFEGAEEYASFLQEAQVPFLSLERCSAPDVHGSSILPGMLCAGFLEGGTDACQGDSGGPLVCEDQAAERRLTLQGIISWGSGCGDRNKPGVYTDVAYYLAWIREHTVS

[1] = biological target: T2, Tyrosine-protein phosphatase non-receptor type 7 (Homo sapiens, UniProt P35236); experiment: redox-active compounds inhibiting HePTP phosphatase – biochemical, fluorescence, mechanism study (AID 2068); assay type: functional
T2 sequence (P35236 whole entry): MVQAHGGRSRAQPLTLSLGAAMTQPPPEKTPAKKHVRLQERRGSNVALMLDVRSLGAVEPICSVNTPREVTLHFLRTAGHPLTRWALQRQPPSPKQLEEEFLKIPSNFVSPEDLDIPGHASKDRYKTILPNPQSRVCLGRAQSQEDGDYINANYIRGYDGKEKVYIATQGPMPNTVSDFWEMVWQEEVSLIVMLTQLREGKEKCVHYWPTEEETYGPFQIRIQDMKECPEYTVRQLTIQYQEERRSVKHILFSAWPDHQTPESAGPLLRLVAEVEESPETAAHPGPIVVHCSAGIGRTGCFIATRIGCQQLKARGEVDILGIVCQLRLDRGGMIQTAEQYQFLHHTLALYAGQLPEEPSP

Mu-type opioid receptor = Mu-type opioid receptor (Homo sapiens, UniProt P35372); experiment: SAR Analysis of Antagonists of the MOR Receptor using an Image-Based Assay - Set 3. [Related pubchem assays (depositor defined):AID1777, AID1785, AID1786, AID1966, AID2133, AID2136, AID2284, AID2285, AID2420]; assay type: functional
[2] = biological target: T3, Kappa-type opioid receptor (Homo sapiens, UniProt P41145); experiment: SAR analysis of Antagonists of the Kappa Opioid Receptor (KOR) using an Image-Based Assay - Set 4. [Related pubchem assays (depositor defined):AID1777, AID1785]; assay type: functional
[3] = biological target: T3, Kappa-type opioid receptor; experiment: SAR analysis of small molecule antagonists of the kappa opioid receptor via a luminescent beta-arrestin assay - Set 3. [Related pubchem assays (depositor defined):AID1777, AID1778, AID1785, AID1786, AID1966, AID2133, AID2136, AID2285, AID2495]; assay type: functional
[4] = biological target: Delta-type opioid receptor (Homo sapiens, UniProt P41143); experiment: SAR Analysis of Antagonists of the DOR Receptor using an Image-Based Assay - Set 3. [Related pubchem assays (depositor defined):AID1777, AID1785]; assay type: functional;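 further: U2OS cells expressing DOR1 and beta-arrestin GFP stimulated with 100 nM SNC80; imaging of GFP-tagged beta-arrestin moving into spots after receptor activation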
Beta Lactamase = Beta Lactamase (Pseudomonas aeruginosa, UniProt Q932Y6); experiment: BLA reporter interference, concentration series – BLA reporter cells, FRET fluorescence, artefact control for TLR9-MyD88 binding inhibitor project, dose response (AID 588341); assay type: cell-based;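 further: cell based assay in CHO-K1 cells stably expressing beta-lactamase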
CHO = CHO cell viability loss, potency – luminescence, cytotoxicity control for TLR9-MyD88 binding inhibitor project, dose response (AID 588339); assay type: functional, cell-based, hamster; conditions: Cricetulus griseus;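 further: CHO cells stably coexpressing TLR9 and MyD88 fusions from primary screen; compound exposure lasted 48 hours before viability readout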
[5] = biological target: Glucose-6-phosphate 1-dehydrogenase (Homo sapiens, UniProt P11413); experiment: inhibition of Homo sapiens G6PD, dose series – biochemical, fluorescence, selectivity assay for P. falciparum G6PD inhibitor project, dose response (AID 504792); assay type: functional
Hexokinase = Hexokinase (Trypanosoma brucei, UniProt Q38C41); experiment: Confirmation assay for inhibitors of Trypanosoma brucei hexokinase 1-Analogue-first series. [Related pubchem assays (depositor defined):AID1430, AID1632, AID2516, AID2560, AID2579, AID2600, AID449725, AID492951]; assay type: functional
Hexokinase, sequence (Q38C41 whole entry): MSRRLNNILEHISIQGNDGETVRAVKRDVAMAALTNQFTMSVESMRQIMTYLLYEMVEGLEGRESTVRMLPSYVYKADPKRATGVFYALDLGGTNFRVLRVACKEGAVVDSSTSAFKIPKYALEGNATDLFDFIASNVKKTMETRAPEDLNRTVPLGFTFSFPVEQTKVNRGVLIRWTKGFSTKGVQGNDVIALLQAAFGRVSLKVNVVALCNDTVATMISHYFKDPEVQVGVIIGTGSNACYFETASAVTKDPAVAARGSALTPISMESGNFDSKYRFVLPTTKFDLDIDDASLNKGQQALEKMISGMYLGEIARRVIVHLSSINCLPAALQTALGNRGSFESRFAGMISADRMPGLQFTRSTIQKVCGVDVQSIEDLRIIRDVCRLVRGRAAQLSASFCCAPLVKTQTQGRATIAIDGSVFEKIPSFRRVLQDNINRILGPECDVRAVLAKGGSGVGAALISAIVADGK

T3 sequence (P41145 whole entry): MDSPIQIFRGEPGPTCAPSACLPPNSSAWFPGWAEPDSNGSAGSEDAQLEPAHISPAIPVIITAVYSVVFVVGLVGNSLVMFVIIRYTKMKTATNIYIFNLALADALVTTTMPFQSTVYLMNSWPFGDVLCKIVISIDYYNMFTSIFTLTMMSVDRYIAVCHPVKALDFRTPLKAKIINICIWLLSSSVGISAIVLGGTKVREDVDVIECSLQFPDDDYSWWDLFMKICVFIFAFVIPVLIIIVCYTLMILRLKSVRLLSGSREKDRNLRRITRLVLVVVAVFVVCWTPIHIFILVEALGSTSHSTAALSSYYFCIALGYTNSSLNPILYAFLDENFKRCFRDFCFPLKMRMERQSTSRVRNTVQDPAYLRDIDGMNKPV
Delta-type opioid receptor, sequence (P41143 whole entry): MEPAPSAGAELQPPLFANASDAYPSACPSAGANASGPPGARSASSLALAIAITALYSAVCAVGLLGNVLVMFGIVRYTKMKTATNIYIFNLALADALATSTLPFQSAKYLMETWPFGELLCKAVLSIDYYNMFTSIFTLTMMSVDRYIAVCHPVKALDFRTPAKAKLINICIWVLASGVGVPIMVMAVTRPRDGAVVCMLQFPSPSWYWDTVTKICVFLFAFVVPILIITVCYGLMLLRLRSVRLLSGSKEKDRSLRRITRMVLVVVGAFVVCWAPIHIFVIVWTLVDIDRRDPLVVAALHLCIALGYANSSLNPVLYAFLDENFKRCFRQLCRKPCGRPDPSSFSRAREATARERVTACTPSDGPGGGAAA
Glucose-6-phosphate 1-dehydrogenase, sequence (P11413 whole entry): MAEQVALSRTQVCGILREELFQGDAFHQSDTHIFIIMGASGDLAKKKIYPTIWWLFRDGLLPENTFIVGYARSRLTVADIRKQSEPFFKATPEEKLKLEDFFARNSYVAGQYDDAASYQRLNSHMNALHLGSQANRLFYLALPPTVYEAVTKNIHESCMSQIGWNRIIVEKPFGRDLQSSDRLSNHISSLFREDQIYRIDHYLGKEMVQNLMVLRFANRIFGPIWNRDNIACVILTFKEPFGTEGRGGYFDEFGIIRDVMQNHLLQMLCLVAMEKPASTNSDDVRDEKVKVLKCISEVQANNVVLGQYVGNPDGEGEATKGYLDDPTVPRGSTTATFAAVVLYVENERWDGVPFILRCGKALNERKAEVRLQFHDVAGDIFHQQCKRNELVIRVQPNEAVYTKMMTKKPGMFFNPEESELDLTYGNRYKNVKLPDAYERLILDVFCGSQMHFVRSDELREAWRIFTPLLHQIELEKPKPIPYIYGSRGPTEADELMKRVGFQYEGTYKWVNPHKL
Beta Lactamase, sequence (Q932Y6 whole entry, the tested form may be a part): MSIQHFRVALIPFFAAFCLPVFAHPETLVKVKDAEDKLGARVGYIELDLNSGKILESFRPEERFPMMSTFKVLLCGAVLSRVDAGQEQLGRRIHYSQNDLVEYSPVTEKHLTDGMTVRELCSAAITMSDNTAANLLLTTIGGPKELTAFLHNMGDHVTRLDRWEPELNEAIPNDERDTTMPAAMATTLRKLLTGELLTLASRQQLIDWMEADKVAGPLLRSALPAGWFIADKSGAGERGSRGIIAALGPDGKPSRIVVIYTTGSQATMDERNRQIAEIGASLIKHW
Mu-type opioid receptor, sequence (P35372 whole entry): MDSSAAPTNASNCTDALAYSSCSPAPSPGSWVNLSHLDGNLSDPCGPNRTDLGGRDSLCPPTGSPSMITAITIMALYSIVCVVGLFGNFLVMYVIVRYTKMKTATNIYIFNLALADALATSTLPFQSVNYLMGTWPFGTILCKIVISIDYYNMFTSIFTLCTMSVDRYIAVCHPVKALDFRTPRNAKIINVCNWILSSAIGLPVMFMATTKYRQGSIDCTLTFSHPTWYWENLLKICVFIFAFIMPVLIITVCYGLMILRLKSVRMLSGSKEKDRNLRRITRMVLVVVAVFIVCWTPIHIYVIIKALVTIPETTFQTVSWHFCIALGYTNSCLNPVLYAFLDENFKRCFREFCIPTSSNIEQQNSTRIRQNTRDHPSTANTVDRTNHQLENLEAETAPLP

IC50 (Coagulation factor XII): > 50 µM (inactive)
Compound: O=C(C1CCC1)N(CCc1ccccc1)Cc1nc(O)c2ccccc2n1

IC50 [1]: 0.84 µM (active)
Compound: CC1CCN(C(=O)Nc2ccc3nc(-c4ccco4)c(-c4ccco4)nc3c2)CC1

IC50 (Mu-type opioid receptor): > 32 µM (inactive)
IC50 [2]: 2.28 µM (active)
IC50 [3]: 0.875 µM (active)
IC50 [4]: > 32 µM (inactive)
Compound: Cc1ccc(N2CCN(CCCNC(=O)Cn3c(=O)c4cccn4c4c(C)ccnc43)CC2)cc1

Continued, compound first:

Compound: CC(=O)c1ccc(-c2csc(N3CCC(C(N)=O)CC3)n2)cc1
EC50 (T-cell): 2.47 µM (active)

Compound: O=c1c2cc(C(F)(F)F)ccc2sn1-c1ccccc1
IC50 (Beta Lactamase): > 49.8 µM (inactive)
IC50 (CHO): 9.07 µM (active)
IC50 [5]: 18.3 µM (active)
IC50 (Hexokinase): > 25 µM (inactive)
